Test [1] addresses T1, hSSTR2 (Homo sapiens, UniProt P30874).
T1 construct: host or cells: 'Cells expressing hSSTR2'
The test can be described thus: Somatostatin receptor radioligand binding assay (hSSTR2).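 Note: radioligand displacement on membranes of CHO-K1 cells stably transfected with human SSTR2, specific binding taken as total minus binding left with 1000 nM SRIF-14.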

Test [2] concerns the target T1, hSSTR2. Description: Intracellular calcium mobilization assay (FLIPR Calcium 4), hSSTR2.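 Note: agonist activity measured in cells expressing hSSTR2, seeded in 384-well plates, loaded with Calcium 4 dye, read-out as rise in intracellular calcium.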 It is filed as cell-based.
Description: (§1) The ability of select compounds according to the present invention to activate hSSTR2 and hDRD2 was determined by the intracellular calcium mobilization assay using FLIPR Calcium 4 assay kit (Molecular Devices).
(§2) Cells expressing hSSTR2 or hDRD2 were plated in 384-well microplates in tissue culture media and incubated for 16-24 hours at 37°C in a humidified atmosphere with 5% CO2. Medium was replaced by loading buffer containing Hank's buffered saline, 20 mM HEPES, 2.5 mM probenecid and Calcium 4 dye, and the plates were incubated at 37°C for 60 minutes.
For test [3], the target named is T2, hDRD2 (Homo sapiens, UniProt P14416). Description: cell-based. The arrangement: host or cells: 'Cells expressing hDRD2'. Particulars: for Emax: read-out: hDRD2 %Emax ± SEM.
T2 sequence (P14416 whole entry): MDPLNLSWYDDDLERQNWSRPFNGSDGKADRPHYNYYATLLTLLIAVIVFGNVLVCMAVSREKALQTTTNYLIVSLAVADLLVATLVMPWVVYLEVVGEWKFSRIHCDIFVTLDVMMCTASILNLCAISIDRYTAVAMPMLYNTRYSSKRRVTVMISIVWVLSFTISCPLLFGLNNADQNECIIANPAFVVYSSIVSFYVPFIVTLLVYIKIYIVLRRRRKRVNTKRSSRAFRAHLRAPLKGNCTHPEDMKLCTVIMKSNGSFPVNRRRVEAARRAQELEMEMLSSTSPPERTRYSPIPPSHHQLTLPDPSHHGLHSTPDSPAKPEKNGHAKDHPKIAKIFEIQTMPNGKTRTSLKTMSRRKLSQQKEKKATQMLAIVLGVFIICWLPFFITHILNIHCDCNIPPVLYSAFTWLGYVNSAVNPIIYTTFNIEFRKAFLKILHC
Description: as §1, §2
The target of test [4] is T2, hDRD2. Description: biochemical. Type of test: binding. The arrangement: expressed in transfected cells; host or cells: CHO-K1, pcDNA3.1/GS, zeocin-selected clonal line; membranes.
The target in the next test is T3, hSSTR1 (Homo sapiens, UniProt P30872).
T3 construct: expressed in transfected cells; host or cells: CHO-K1 (ATCC), pcDNA3.1, G418-selected clonal line; membranes
T3 sequence (P30872 whole entry): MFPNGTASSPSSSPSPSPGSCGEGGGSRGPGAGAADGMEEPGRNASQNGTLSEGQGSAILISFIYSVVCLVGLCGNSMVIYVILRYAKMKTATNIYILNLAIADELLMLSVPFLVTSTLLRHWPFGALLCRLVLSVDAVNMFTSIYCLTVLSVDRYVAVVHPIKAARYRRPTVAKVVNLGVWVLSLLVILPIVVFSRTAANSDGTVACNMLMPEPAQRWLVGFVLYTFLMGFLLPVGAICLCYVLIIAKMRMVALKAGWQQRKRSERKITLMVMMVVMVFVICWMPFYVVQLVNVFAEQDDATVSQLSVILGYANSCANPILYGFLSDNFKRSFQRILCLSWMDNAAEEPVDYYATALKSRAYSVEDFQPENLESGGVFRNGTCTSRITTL
Description: Somatostatin receptor radioligand binding assay (hSSTR1).

Where two headings read alike, the source gives them in different places. Numbered stars: 1 amine (or outer) side, 2 acyl side, 3 side chain; on linkers, the order of the positions; unused ones are H or OH. Bridge positions count the residues as written; N and C are the ends. Square brackets hold non-standard residues; d marks the D form. Peptide text beside a SMILES is read from it. * marks the point of attachment. X1 = CN1C[C@H](CSCCN(CCSC[C@@H]2C[C@@H]3c4cccc5[nH]cc(c45)C[C@H]3N(C)C2)[C@H](CCCCN[*:2])C(=O)[*:1])C[C@@H]2c3cccc4[nH]cc(c34)C[C@H]21; X2 = CN1C[C@H](CSCC(=O)*)C[C@@H]2c3cccc4[nH]cc(c34)C[C@H]21; Phe(4-F) = N[C@@H](Cc1ccc(F)cc1)C(=O)O; 4Pal = N[C@@H](Cc1ccncc1)C(=O)O
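Throughout, for Emax: agonist activity at human DRD2 in DRD2-expressing cells, read as intracellular calcium mobilization with a FLIPR Calcium 4 fluorescent dye.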

T1 sequence (P30874 whole entry): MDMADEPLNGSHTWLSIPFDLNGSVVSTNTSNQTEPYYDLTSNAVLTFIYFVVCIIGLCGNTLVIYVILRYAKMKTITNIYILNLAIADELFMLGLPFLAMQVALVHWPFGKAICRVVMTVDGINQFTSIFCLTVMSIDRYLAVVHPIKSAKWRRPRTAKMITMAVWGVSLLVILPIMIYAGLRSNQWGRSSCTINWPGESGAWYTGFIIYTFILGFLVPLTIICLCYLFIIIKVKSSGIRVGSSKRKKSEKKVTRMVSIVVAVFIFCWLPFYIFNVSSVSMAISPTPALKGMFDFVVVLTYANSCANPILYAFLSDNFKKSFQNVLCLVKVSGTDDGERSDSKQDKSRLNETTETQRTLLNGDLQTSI
Description for hSSTR1: The affinities of a test compound for the human somatostatin receptors were determined by radioligand binding assays in CHO-K1 cells stably transfected with each of the human somatostatin receptor subtypes, hSSTR1-5. […] Clonal cell lines stably expressing each of the somatostatin receptors were obtained by transfection into CHO-K1 cells (ATCC) and subsequently selected with culture media containing 0.8 mg/mL of G418 (Life Technologies).
Membranes for in vitro receptor binding assays were obtained by the following procedures. […] The supernatant containing the plasma membranes was centrifuged at 100,000 x g for 30 minutes and the pellet was resuspended in buffer containing 20 mM glycine-glycine, 1 mM MgCl2, 250 mM sucrose, pH 7.2, for storage at -80°C.
For the SSTR1, 2 and 5 assays, membranes and various concentrations of test compounds were incubated in 96-well plates for 60 minutes at 25°C with 0.05 nM [^125I-Tyr^11]-SRIF-14 (for hSSTR1; PerkinElmer Life Science), 0.05 nM [^125I-Tyr]-seglitide (for hSSTR2; PerkinElmer Life Science) or 0.05 nM [^125I-Tyr]-[DPhe-cyclo(Cys-Tyr-DTrp-Lys-Val-Cys)-Thr-NH2] (for hSSTR5; PerkinElmer Life Science) in 50 mM HEPES, 0.2% BSA, 0.1 mM MgCl2, pH 7.5.
The incubations were terminated by rapid filtration through GF/C glass microfiber filter plates (pre-wet with 0.3% polyethyleneimine and 0.1 % BSA) using a 96-well cell harvester (Brandel). Plates were washed six times with 1 mL/well aliquots of ice-cold buffer containing 50 mM Tris buffer, pH 7.7. Specific binding was defined as the total radioligand bound minus the bound in the presence of 1000 nM SRIF-14.

With `C[C@@H](O)[C@@H]1NC(=O)[C@H](CCCCN)NC(=O)[C@@H](Cc2c[nH]c3ccccc23)NC(=O)[C@H](Cc2ccccc2)NC(=O)[C@H](Cc2ccccc2)NC(=O)[C@H](CCCNC(=N)N)NC(=O)[C@H](NC[C@H](Cc2ccc(O)cc2)NC(=O)CS(=O)(=O)C[C@@H]2C[C@@H]3c4cccc5[nH]cc(c45)C[C@H]3N(C)C2)CCCCNC(=O)[C@H](Cc2ccc(F)cc2)NC1=O` [Compound 19, Dop1(SO2)-Tyr-psi(CH2NH)-cyclo(DLys-Arg-Phe-Phe-DTrp-Lys-Thr-4FPhe)], the Ki on hSSTR2 [1] is 0.16 ± 0.12 nM; at hDRD2 [4], greater than 1000 nM. Moreover, the EC50 was 4.3 ± 1.2 nM on hSSTR2 [2] and 701 ± 220 nM on hDRD2 [3]. Further, at hDRD2 [3], the Emax worked out at 90.7 ± 5.7%.

With `C[C@@H](O)[C@@H]1NC(=O)[C@H](CCCCN)NC(=O)[C@@H](Cc2c[nH]c3ccccc23)NC(=O)[C@H](Cc2ccncc2)NC(=O)[C@H](Cc2ccccc2)NC(=O)[C@H](CCCNC(=N)N)NC(=O)[C@H](NC[C@H](Cc2ccc(O)cc2)NC(=O)CS(=O)(=O)C[C@@H]2C[C@@H]3c4cccc5[nH]cc(c45)C[C@H]3N(C)C2)CCCCNC(=O)[C@H](Cc2ccccc2)NC1=O` [Compound 21, Dop1(SO2)-Tyr-psi(CH2NH)-cyclo(DLys-Arg-Phe-4Pal-DTrp-Lys-Thr-Phe)], the inhibition constant (Ki) is 0.02 ± 0.01 nM on hSSTR2 [1] and greater than 1000 nM on hDRD2 [4]. For the same molecule, the figures for the EC50 on hSSTR2 [2] and on hDRD2 [3] were 0.9 ± 0.1 nM and 208 ± 26.8 nM, respectively. The Emax at hDRD2 [3] turned out to be 92.1 ± 0.2%.

As for `CC(=O)N(CCCNC[C@@H]1C[C@@H]2c3cccc4[nH]cc(c34)C[C@H]2N(C)C1)[C@@H]1CCCCNC(=O)[C@H](Cc2ccc(F)cc2)NC(=O)[C@H]([C@@H](C)O)NC(=O)[C@H](CCCCN)NC(=O)[C@@H](Cc2c[nH]c3ccccc23)NC(=O)[C@H](Cc2ccccc2)NC(=O)[C@H](Cc2ccccc2)NC(=O)[C@H](CCCNC(=N)N)NC1=O` [Compound 22, 3-[N-(D-6-methyl-8β-ergolinylmethyl)]-aminopropionyl-psi(CH2NAc)-cyclo(DLys-Arg-Phe-Phe-DTrp-Lys-Thr-4FPhe)], the Ki at hSSTR2 [1] is 0.35 ± 0.18 nM; on hDRD2 [4], 200 ± 65 nM. Besides, the EC50 amounted to 27.5 ± 6.7 nM on hSSTR2 [2] and 513 ± 129 nM at hDRD2 [3]. The Emax on hDRD2 [3] worked out at 38.7 ± 8.8%.

`C[C@@H](O)[C@@H]1NC(=O)[C@H](CCCCN)NC(=O)[C@@H](Cc2c[nH]c3ccccc23)NC(=O)[C@H](Cc2ccncc2)NC(=O)[C@H](Cc2ccccc2)NC(=O)[C@H](CCCNC(=N)N)NC(=O)[C@H](NCCSC[C@@H]2C[C@@H]3c4cccc5[nH]cc(c45)C[C@H]3N(C)C2)CCCCNC(=O)[C@H](Cc2ccccc2)NC1=O` [Compound 23, Dop1-psi(CH2NH)-cyclo(DLys-Arg-Phe-4Pal-DTrp-Lys-Thr-Phe)]: the Ki on hSSTR2 [1] came to 0.09 nM; on hDRD2 [4], 328 ± 19.3 nM. Besides, the EC50 at hSSTR2 [2] came out at 2.4 ± 0.1 nM; at hDRD2 [3] it was 34.2 ± 13.7 nM. Besides, the “improvement in EC50 over Reference Compound A” value on hSSTR2 [2] (p value (Student's t-test, one-tailed) < 0.05, receptor not named) is reported as “statistically significant improvement in EC50”. Moreover, at hDRD2 [3], the Emax came out at 96.4 ± 5.3%.

Consider `C[C@@H](O)[C@@H]1NC(=O)[C@H](CCCCN)NC(=O)[C@@H](Cc2c[nH]c3ccccc23)NC(=O)[C@H](Cc2ccccc2)NC(=O)[C@H](Cc2ccccc2)NC(=O)[C@H](CCCNC(=N)N)NC(=O)[C@H](NCCSC[C@@H]2C[C@@H]3c4cccc5[nH]cc(c45)C[C@H]3N(C)C2)CCCCNC(=O)[C@H](Cc2ccccc2)NC1=O` [Compound 26, Dop1-psi(CH2NH)-cyclo(DLys-Arg-Phe-Phe-DTrp-Lys-Thr-Phe)], for which the Ki at hSSTR1 was 59 nM; at hSSTR2 [1], 2.23 ± 0.97 nM; on hDRD2 [4] it was 309 ± 56.6 nM. Besides, the EC50 stood at 9.8 ± 1.4 nM on hSSTR2 [2] and 34.1 ± 6.8 nM at hDRD2 [3]. Also, on hDRD2 [3], the Emax was determined as 93.7 ± 7.2%.

`CC(=O)N(CCCN(C(C)=O)[C@@H]1CCCCNC(=O)[C@H](Cc2ccc(F)cc2)NC(=O)[C@H]([C@@H](C)O)NC(=O)[C@H](CCCCN)NC(=O)[C@@H](Cc2c[nH]c3ccccc23)NC(=O)[C@H](Cc2ccccc2)NC(=O)[C@H](Cc2ccccc2)NC(=O)[C@H](CCCNC(=N)N)NC1=O)C[C@@H]1C[C@@H]2c3cccc4[nH]cc(c34)C[C@H]2N(C)C1` [Compound 28, 3-[N-acetyl-N-(D-6-methyl-8β-ergolinylmethyl)]-aminopropionyl-psi(CH2NAc)-cyclo(DLys-Arg-Phe-Phe-DTrp-Lys-Thr-4FPhe)]: the Ki stood at 0.75 ± 0.27 nM on hSSTR2 [1] and 39.9 ± 10.4 nM at hDRD2 [4]. In addition, the EC50 is 11.8 ± 7.6 nM at hSSTR2 [2] and 265 ± 104 nM on hDRD2 [3]. Further, at hDRD2 [3], the Emax amounted to 56 ± 9.1%.

Turning to `CC(=O)N(CCCN[C@@H]1CCCCNC(=O)[C@H](Cc2ccc(F)cc2)NC(=O)[C@H]([C@@H](C)O)NC(=O)[C@H](CCCCN)NC(=O)[C@@H](Cc2c[nH]c3ccccc23)NC(=O)[C@H](Cc2ccccc2)NC(=O)[C@H](Cc2ccccc2)NC(=O)[C@H](CCCNC(=N)N)NC1=O)C[C@@H]1C[C@@H]2c3cccc4[nH]cc(c34)C[C@H]2N(C)C1` [Compound 29A, 3-[N-acetyl-(D-6-methyl-8β-ergolinylmethyl)]-aminopropionyl-psi(CH2NH)-cyclo(DLys-Arg-Phe-Phe-DTrp-Lys-Thr-4FPhe)], the Ki was 0.13 nM on hSSTR2 [1] and 46.8 ± 7.4 nM on hDRD2 [4]. Moreover, the EC50 on hSSTR2 [2] was 8.2 ± 0.7 nM; at hDRD2 [3], 62.7 ± 14.8 nM. The Emax at hDRD2 [3] was 82.8 ± 6.7%.

Regarding `C[C@@H](O)[C@@H]1NC(=O)[C@H](CCCCN)NC(=O)[C@@H](Cc2c[nH]c3ccccc23)NC(=O)[C@H](Cc2ccccc2)NC(=O)[C@H](Cc2ccccc2)NC(=O)[C@H](CCCNC(=N)N)NC(=O)[C@@H](NC[C@H](Cc2ccc(O)cc2)NC(=O)CSC[C@@H]2C[C@@H]3c4cccc5[nH]cc(c45)C[C@H]3N(C)C2)CCCCNC(=O)[C@H](Cc2ccccc2)NC1=O` [Compound 31, Dop1-Tyr-psi(CH2NH)-cyclo(Lys-Arg-Phe-Phe-DTrp-Lys-Thr-Phe)], the Ki worked out at 0.51 ± 0.1 nM at hSSTR2 [1] and 38.6 ± 28.6 nM on hDRD2 [4]. The EC50 on hSSTR2 [2] is 13.3 ± 0.9 nM; on hDRD2 [3], 37.7 ± 4.6 nM. The Emax at hDRD2 [3] turned out to be 94.8 ± 9.7%.

As to `C[C@@H](O)[C@@H]1NC(=O)[C@H](CCCCN)NC(=O)[C@@H](Cc2c[nH]c3ccccc23)NC(=O)[C@H](Cc2ccccc2)NC(=O)[C@H](Cc2ccccc2)NC(=O)[C@H](CCCNC(=N)N)NC(=O)[C@H](NC(=O)CSC[C@@H]2C[C@@H]3c4cccc5[nH]cc(c45)C[C@H]3N(C)C2)CCCCNC(=O)[C@H](Cc2ccc(F)cc2)NC1=O` [Compound 34, Dop1-cyclo(DLys-Arg-Phe-Phe-DTrp-Lys-Thr-4FPhe)] (X2-[dK]RFF[dW]KT[Phe(4-F)]; lactam 1-C), the Ki on hSSTR2 [1] was 4.55 ± 1.15 nM; at hDRD2 [4] it was 299 nM. For the same molecule, the EC50 is 14.6 ± 5.7 nM on hSSTR2 [2] and 72.7 nM on hDRD2 [3]. Moreover, the Emax on hDRD2 [3] was determined as 77.9%.

For the molecule `C[C@@H](O)[C@@H]1NC(=O)[C@H](CCCCN)NC(=O)[C@@H](Cc2c[nH]c3ccccc23)NC(=O)[C@H](Cc2ccncc2)NC(=O)[C@H](Cc2ccccc2)NC(=O)[C@H](CCCNC(=N)N)NC(=O)[C@H](N(CCSC[C@@H]2C[C@@H]3c4cccc5[nH]cc(c45)C[C@H]3N(C)C2)CCSC[C@@H]2C[C@@H]3c4cccc5[nH]cc(c45)C[C@H]3N(C)C2)CCCCNC(=O)[C@H](Cc2ccc(O)cc2)NC1=O` [Compound 35, bis[Dop1-psi(CH2N)]-cyclo(DLys-Arg-Phe-4Pal-DTrp-Lys-Thr-Tyr)] (RF[4Pal][dW]KTY; linker N-C via X1), the Ki at hSSTR1 (CHO-K1 cell membranes, 0.05 nM [125I-Tyr11]-SRIF-14, 60 minutes at 25°C, read-out: hSSTR1 Ki (nM) ± SEM) was 99.7 nM; at hSSTR2 [1] (CHO-K1 cell membranes, 0.05 nM [125I-Tyr]-seglitide, 60 minutes at 25°C, read-out: hSSTR2 Ki (nM) ± SEM), 0.17 ± 0.06 nM; on hDRD2 [4], 345 ± 40.4 nM. Besides, the EC50 at hSSTR2 [2] (Table IV, cells expressing hSSTR2, read-out: hSSTR2 EC50 (nM) ± SEM) was determined as 19.4 ± 6.2 nM; at hDRD2 [3] it was 97.4 ± 21.1 nM. For the same molecule, at hDRD2 [3], the Emax was determined as 103 ± 1.4%.

Consider `C[C@@H](O)[C@@H]1NC(=O)[C@H](CCCCN)NC(=O)[C@@H](Cc2c[nH]c3ccccc23)NC(=O)[C@H](Cc2ccccc2)NC(=O)[C@H](Cc2ccccc2)NC(=O)[C@H](CCCNC(=N)N)NC(=O)[C@H](N(CCSC[C@@H]2C[C@@H]3c4cccc5[nH]cc(c45)C[C@H]3N(C)C2)CCSC[C@@H]2C[C@@H]3c4cccc5[nH]cc(c45)C[C@H]3N(C)C2)CCCCNC(=O)[C@H](Cc2ccc(F)cc2)NC1=O` [Compound 39, bis[Dop1-psi(CH2N)]-cyclo(DLys-Arg-Phe-Phe-DTrp-Lys-Thr-4FPhe)] (RFF[dW]KT[Phe(4-F)]; linker N-C via X1), for which the Ki on hSSTR2 [1] was 3.72 ± 2.01 nM; at hDRD2 [4] it was 330 ± 59.5 nM. The EC50 on hSSTR2 [2] was found to be 25.9 ± 6.9 nM; at hDRD2 [3] it was 114 ± 24.4 nM. Moreover, at hDRD2 [3], the Emax is 95.7 ± 2.4%.

For `C[C@@H](O)[C@@H]1NC(=O)[C@H](CCCCN)NC(=O)[C@@H](Cc2c[nH]c3ccccc23)NC(=O)[C@H](Cc2ccccc2)NC(=O)[C@H](Cc2ccccc2)NC(=O)[C@H](CCCNC(=N)N)NC(=O)[C@H](NCCCS(=O)(=O)C[C@@H]2C[C@@H]3c4cccc5[nH]cc(c45)C[C@H]3N(C)C2)CCCCNC(=O)[C@H](Cc2ccc(F)cc2)NC1=O` [Compound 48, (D-6-methyl-8β-ergolinylmethyl)-sulfonylpropyl-cyclo(DLys-Arg-Phe-Phe-DTrp-Lys-Thr-4FPhe)], the Ki was determined as 0.25 ± 0.1 nM at hSSTR2 [1] and 19.4 ± 2.8 nM at hDRD2 [4]. For the same molecule, the half-maximal effective concentration (EC50) was 23.6 ± 7.9 nM on hSSTR2 [2] and 78.3 ± 15.2 nM at hDRD2 [3]. Besides, the Emax at hDRD2 [3] was 76.5 ± 2.8%.

For the origin of these results see patent EP2914280B1, “SOMATOSTATIN-DOPAMINE CHIMERIC ANALOGS” (IPSEN PHARMA S.A.S., priority 2012, dated 2014).
